Reference: patent EP3070175A1, “TEST FOR DETERMINING SUSCEPTIBILITY OR RESISTANCE TO POLYMYXINS IN ENTEROBACTERIACEAE” (Université de Fribourg, priority 2015, dated 2016)

Key:
P. mirabilis = experiment: MIC determination, broth microdilution in Cation-Adjusted Mueller-Hinton broth (CLSI); format: cell-based, Proteus mirabilis; settings: strain Pmir
Protocol: (§1) Determination of MIC values were performed using the reference technique (broth microdilution in Cation-Adjusted Mueller-Hinton broth) according to the CLSI guidelines. Polymyxin B and colistin (Sigma-Aldrich, Saint-Louis) were tested over a range dilution from 0.12 to 128 µg/ml and 5.10^5 CFU/ml of bacteria in each well was used. Following the EUCAST breakpoints (http://www.eucast.org/), strains with a colistin MICs of ≤ 2 µg/ml were categorized as susceptible, although those with MICs of > 2 µg/ml were resistant.
(§2) All experiments were repeated in triplicate.

C. freundii = experiment: as above; format: cell-based; settings: for Colistin resistance: EUCAST breakpoints
Protocol: as §1, §2

E. aerogenes = experiment: as above; format: cell-based; settings: strain 6 FR
Protocol: as §1, §2

E. cloacae = experiment: as above; format: cell-based; settings: for Colistin resistance: EUCAST breakpoints
Protocol: as §1, §2

H. alvei = experiment: as above; format: cell-based; settings: strain ER
Protocol: as §1, §2

K. oxytoca = experiment: as above; format: cell-based; settings: strain C24
Protocol: as §1, §2

M. morganii = experiment: as above; format: cell-based; settings: strain Mmor
Protocol: as §1, §2

P. stuartii = experiment: as above; format: cell-based; settings: strain Pstu
Protocol: as §1, §2

K. pneumoniae [1] = experiment: as above; format: cell-based, Klebsiella pneumoniae; settings: for Colistin resistance: EUCAST breakpoints
Protocol: as §1, §2

K. pneumoniae [2] = experiment: Polymyxin test: colorimetric detection of growth (glucose metabolization, phenol red) in presence of colistin sulphate; format: cell-based, Klebsiella pneumoniae; design: key: +, yellow; -, orange; settings: colistin sulphate 3.75 mg/L final, visual colour change, up to 4 h at 37°C
Protocol: Each inoculum was prepared by mixing 1 öse (10 µl) of a fresh culture of the tested bacteria in 5 ml of sterile NaCl 0.85% (at a density of 3 Mac Farland, i.e. about 10^9 CFU/ml).
250 ml of reactive medium was prepared by mixing the compounds hereafter: • a broth powder of a non selective growth medium for bacteria, the Cation-Adjusted Mueller-Hinton broth (MHB-CA) : 6.25 g • a colour indicator, the phenol red : 0.0125 g • sterile distilled water 225 ml • sterile D (+)-glucose (10 %) anhydrous (sterilization by filtration) : 25 ml
The pH of the final reactive medium was adjusted to 6.6 and 6.7 with HCl 1M.
Colistin or polymyxin B was added or not at the concentration of 5 mg/L in the reactive medium. Standard colistin sulphate and polymyxin B were from Sigma Aldrich (Saint-Louis, France). Those antibiotic molecule powders were kept at 4°C before their use, whereas polymyxin dilutions were kept at -20°C.
For each strain, two wells of a plastic sterile plate with 96 shaped wells were inoculated in parallel with and without polymyxin (colistin sulphate or polymyxin B) in order to compare their colour change.
Plastic sterile plates were from Sarstedt (Nümbrecht, Germany). The tray may be prepared as follows : • 1. 150 µl of reactive medium colistin free (obtained in 1.) in the first line • 2. 150 µl of reactive medium with 5 mg/l of colistin sulphate in the second line (final concentration = 3.75 mg/l) • 3. 50 µl of NaCl alone in the first column (one well colistin-free and one well with colistin sulphate) (medium control) • 4. 50 µl of the bacterial suspension (obtained in 2.) for the control strains and for every strain in the other column (one well colistin-free and one well with colistin)
After mixing of the bacterial suspension to the reactive medium by pipetting up and down, the final concentration of bacteria was 2.5.10^8 CFU/ml in each well and the final selective concentration of colistin or polymyxin B in the well with polymyxin was 3.75 mg/L.
The results of the tests were recorded at 10 min (checking for no spontaneous colour change in the well) and then every hour for a maximum of 4 hours by visual inspection. No colour change of the well with colistin sulphate or polymyxin B indicated susceptibility to colistin sulphate or polymyxin B and negativity of those tests. On the contrary, a colour change (orange to yellow) indicates the positivity of the test meaning growth capability (related to glucose metabolism) in presence of colistin sulphate or polymyxin B, i.e. resistance to colistin sulphate or polymyxin B.
as §2

colistin sulphate
Colistin resistance (P. mirabilis; EUCAST breakpoints): + (those with MICs of > 2 µg/ml were resistant) | Colistin MIC (P. mirabilis; Natural resistance): >128 µg/mL | Colistin MIC (C. freundii; strain 8 FR): 0.12 µg/mL | Colistin resistance (C. freundii; strain 8 FR): - (strains with a colistin MICs of ≤ 2 µg/ml were categorized as susceptible) | Colistin MIC (C. freundii; strain C136): 0.12 µg/mL | Colistin resistance (C. freundii; strain C136): - (strains with a colistin MICs of ≤ 2 µg/ml were categorized as susceptible) | Colistin MIC (E. aerogenes): 0.12 µg/mL | Colistin resistance (E. aerogenes; EUCAST breakpoints): - (strains with a colistin MICs of ≤ 2 µg/ml were categorized as susceptible) | Colistin MIC (E. cloacae; strain 7 FR): 0.12 µg/mL | Colistin resistance (E. cloacae; strain 7 FR): - (strains with a colistin MICs of ≤ 2 µg/ml were categorized as susceptible) | Colistin resistance (E. cloacae; strain C28): + (those with MICs of > 2 µg/ml were resistant) | Colistin MIC (E. cloacae; strain C28, resistance mechanism Unknown): 32 µg/mL | Colistin MIC (E. cloacae; strain C129): 0.25 µg/mL | Colistin resistance (E. cloacae; strain C129): - (strains with a colistin MICs of ≤ 2 µg/ml were categorized as susceptible) | Colistin MIC (E. cloacae; strain C144): 0.25 µg/mL | Colistin resistance (E. cloacae; strain C144): - (strains with a colistin MICs of ≤ 2 µg/ml were categorized as susceptible) | Colistin resistance (E. cloacae; strain HM): + (those with MICs of > 2 µg/ml were resistant) | Colistin MIC (E. cloacae; strain HM, resistance mechanism Unknown): >128 µg/mL | Colistin resistance (H. alvei; EUCAST breakpoints): + (those with MICs of > 2 µg/ml were resistant) | Colistin MIC (H. alvei; resistance mechanism Unknown): 16 µg/mL | Colistin resistance (K. oxytoca; EUCAST breakpoints): + (those with MICs of > 2 µg/ml were resistant) | Colistin MIC (K. oxytoca; mgrB promotor truncated with ISKpn26-like): 64 µg/mL | Colistin resistance (M. morganii; EUCAST breakpoints): + (those with MICs of > 2 µg/ml were resistant) | Colistin MIC (M. morganii; Natural resistance): >128 µg/mL | Colistin resistance (P. stuartii; EUCAST breakpoints): + (those with MICs of > 2 µg/ml were resistant) | Colistin MIC (P. stuartii; Natural resistance): >128 µg/mL | Colistin MIC (K. pneumoniae [1]; strain 1 FR): 0.12 µg/mL | Colistin resistance (K. pneumoniae [1]; strain 1 FR): - (strains with a colistin MICs of ≤ 2 µg/ml were categorized as susceptible) | Colistin MIC (K. pneumoniae [1]; strain 2 FR): 0.12 µg/mL | Colistin resistance (K. pneumoniae [1]; strain 2 FR): - (strains with a colistin MICs of ≤ 2 µg/ml were categorized as susceptible) | Colistin MIC (K. pneumoniae [1]; strain 4 FR): 0.25 µg/mL | Colistin resistance (K. pneumoniae [1]; strain 4 FR): - (strains with a colistin MICs of ≤ 2 µg/ml were categorized as susceptible) | Colistin MIC (K. pneumoniae [1]; strain 9 FR): 0.5 µg/mL | Colistin resistance (K. pneumoniae [1]; strain 9 FR): - (strains with a colistin MICs of ≤ 2 µg/ml were categorized as susceptible) | Colistin resistance (K. pneumoniae [1]; strain 11 FR): + (those with MICs of > 2 µg/ml were resistant) | Colistin MIC (K. pneumoniae [1]; strain 11 FR, resistance mechanism Unknown): 32 µg/mL | Colistin resistance (K. pneumoniae [1]; strain 75b): + (those with MICs of > 2 µg/ml were resistant) | Colistin MIC (K. pneumoniae [1]; strain 75b, PhoP D191Y): 128 µg/mL | Colistin resistance (K. pneumoniae [1]; strain AF1b): + (those with MICs of > 2 µg/ml were resistant) | Colistin MIC (K. pneumoniae [1]; strain AF1b, PmrB T157P): 16 µg/mL | Colistin resistance (K. pneumoniae [1]; strain C23): + (those with MICs of > 2 µg/ml were resistant) | Colistin MIC (K. pneumoniae [1]; strain C23, ΔmgrB): 128 µg/mL | Colistin resistance (K. pneumoniae [1]; strain C25): + (those with MICs of > 2 µg/ml were resistant) | Colistin MIC (K. pneumoniae [1]; strain C25, PmrA G53C): 64 µg/mL | Colistin resistance (K. pneumoniae [1]; strain C26): + (those with MICs of > 2 µg/ml were resistant) | Colistin MIC (K. pneumoniae [1]; strain C26, mgrB gene truncated with IS): 128 µg/mL | Colistin resistance (K. pneumoniae [1]; strain C27): + (those with MICs of > 2 µg/ml were resistant) | Colistin MIC (K. pneumoniae [1]; strain C27, mgrB Δnt23/33 (frameshift)): >128 µg/mL | Colistin MIC (K. pneumoniae [1]; strain C112): 0.12 µg/mL | Colistin resistance (K. pneumoniae [1]; strain C112): - (strains with a colistin MICs of ≤ 2 µg/ml were categorized as susceptible) | Colistin MIC (K. pneumoniae [1]; strain C115): 0.12 µg/mL | Colistin resistance (K. pneumoniae [1]; strain C115): - (strains with a colistin MICs of ≤ 2 µg/ml were categorized as susceptible) | Colistin MIC (K. pneumoniae [1]; strain C130): 0.12 µg/mL | Colistin resistance (K. pneumoniae [1]; strain C130): - (strains with a colistin MICs of ≤ 2 µg/ml were categorized as susceptible) | Colistin MIC (K. pneumoniae [1]; strain C132): 0.12 µg/mL | Colistin resistance (K. pneumoniae [1]; strain C132): - (strains with a colistin MICs of ≤ 2 µg/ml were categorized as susceptible) | Colistin resistance (K. pneumoniae [1]; strain T1b): + (those with MICs of > 2 µg/ml were resistant) | Colistin MIC (K. pneumoniae [1]; strain T1b, mgrB gene truncated with IS5-like): 128 µg/mL | Results of the method of the invention (K. pneumoniae [2]; strain 1 FR): - | Results of the method of the invention (K. pneumoniae [2]; strain 2 FR): - | Results of the method of the invention (K. pneumoniae [2]; strain 4 FR): - | Results of the method of the invention (K. pneumoniae [2]; strain 9 FR): - | Results of the method of the invention (K. pneumoniae [2]; strain 11 FR): + | Results of the method of the invention (K. pneumoniae [2]; strain 75b): + | Results of the method of the invention (K. pneumoniae [2]; strain AF1b): + | Results of the method of the invention (K. pneumoniae [2]; strain C23): + | Results of the method of the invention (K. pneumoniae [2]; strain C25): + | Results of the method of the invention (K. pneumoniae [2]; strain C26): + | Results of the method of the invention (K. pneumoniae [2]; strain C27): + | Results of the method of the invention (K. pneumoniae [2]; strain C112): - | Results of the method of the invention (K. pneumoniae [2]; strain C115): - | Results of the method of the invention (K. pneumoniae [2]; strain C130): - | Results of the method of the invention (K. pneumoniae [2]; strain C132): - | Results of the method of the invention (K. pneumoniae [2]; strain T1b): +
